Measured values taken from patent US20230382924A1, “MODULATORS OF CYSTIC FIBROSIS TRANSMEMBRANE CONDUCTANCE REGULATOR” (VERTEX PHARMACEUTICALS INCORPORATED, priority 2020, published 2023).
Read-outs that look alike come from different tables or passages of the source.

Experiments:
[1] = amide bond
CFTR [2] = molecular target: T1, CFTR (Homo sapiens, UniProt P13569); assay: Membrane Potential Dye, Enteroid Assay B; format: cell-based; conditions: for EC50: read-out: Ent. B EC50
Outline: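 Enteroid cells loaded 25 min at room temperature with 20 μM methyl oxonol plus 30 μM CaCCinh-A01 and 30 μM Chicago Sky Blue, then switched to chloride-free gluconate buffer. Chloride transport was started by chloride-free stimulation solution, with fluorescence read for 15 min.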

CFTR [3] = molecular target: T1, CFTR; assay: Membrane Potential Dye, Enteroid Assay A; format: cell-based; conditions: for EC50: read-out: Ent. A EC50
Outline: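 Enteroid cells were loaded with methyl oxonol membrane potential dye (plus CaCCinh-A01 and Chicago Sky Blue) for 25 min at room temperature. Chloride transport was started by switching to chloride-free gluconate stimulation solution, with fluorescence read for 15 min. Activity was expressed as % of a triple-combination CFTR modulator control (3 μM, 3 μM, 300 nM acute).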

[4] = from COC[C@@H](N)[C@H](Oc1cc(-c2c(C)cccc2C)nc(NS(=O)(=O)c2cccc(C(=O)O)c2)n1)c1ccc(C(C)(C)C)cc1, 13-membered ring, HATU/DIEA, DMF, 162.0 mM, 0.5 h

T1 sequence (P13569 with tags, fused parts or gaps DEL508-508): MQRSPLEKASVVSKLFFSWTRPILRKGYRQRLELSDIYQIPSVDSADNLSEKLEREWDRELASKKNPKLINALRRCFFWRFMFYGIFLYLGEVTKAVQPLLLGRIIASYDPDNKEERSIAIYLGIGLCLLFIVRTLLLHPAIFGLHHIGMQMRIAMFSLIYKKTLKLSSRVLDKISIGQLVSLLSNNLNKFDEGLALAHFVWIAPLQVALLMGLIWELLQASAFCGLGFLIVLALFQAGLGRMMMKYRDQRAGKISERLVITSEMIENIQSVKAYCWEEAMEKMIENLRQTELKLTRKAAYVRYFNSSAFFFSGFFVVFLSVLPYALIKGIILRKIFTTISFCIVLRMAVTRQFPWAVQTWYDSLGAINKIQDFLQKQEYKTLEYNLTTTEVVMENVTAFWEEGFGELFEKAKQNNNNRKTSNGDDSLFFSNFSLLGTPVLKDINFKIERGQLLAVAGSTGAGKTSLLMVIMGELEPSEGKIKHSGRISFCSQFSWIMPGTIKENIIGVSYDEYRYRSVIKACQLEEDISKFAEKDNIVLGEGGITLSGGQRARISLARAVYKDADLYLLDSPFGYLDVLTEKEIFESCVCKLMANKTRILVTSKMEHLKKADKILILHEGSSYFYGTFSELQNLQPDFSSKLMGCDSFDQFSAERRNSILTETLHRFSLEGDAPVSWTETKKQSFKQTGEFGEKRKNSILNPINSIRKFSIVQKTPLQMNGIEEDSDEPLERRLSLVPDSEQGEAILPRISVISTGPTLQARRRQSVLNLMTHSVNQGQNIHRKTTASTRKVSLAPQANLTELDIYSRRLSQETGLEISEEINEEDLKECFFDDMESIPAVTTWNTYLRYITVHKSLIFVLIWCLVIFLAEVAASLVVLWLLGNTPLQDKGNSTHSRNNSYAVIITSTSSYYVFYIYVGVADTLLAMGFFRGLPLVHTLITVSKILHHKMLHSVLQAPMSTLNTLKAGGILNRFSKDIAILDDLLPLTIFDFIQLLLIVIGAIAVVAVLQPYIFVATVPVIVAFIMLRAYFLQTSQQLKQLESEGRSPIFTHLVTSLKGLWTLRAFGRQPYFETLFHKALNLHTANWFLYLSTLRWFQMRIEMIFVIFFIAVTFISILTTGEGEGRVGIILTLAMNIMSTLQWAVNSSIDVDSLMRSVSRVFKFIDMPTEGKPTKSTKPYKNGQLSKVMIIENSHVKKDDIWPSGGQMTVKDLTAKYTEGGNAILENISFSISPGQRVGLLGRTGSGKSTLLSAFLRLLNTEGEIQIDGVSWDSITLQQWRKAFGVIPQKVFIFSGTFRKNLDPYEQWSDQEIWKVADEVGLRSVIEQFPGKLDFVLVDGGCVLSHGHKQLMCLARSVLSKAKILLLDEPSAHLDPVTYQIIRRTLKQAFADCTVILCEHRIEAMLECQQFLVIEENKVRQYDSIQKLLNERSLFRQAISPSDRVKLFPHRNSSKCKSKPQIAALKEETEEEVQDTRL

Cc1cccc(C)c1-c1cc2nc(n1)NS(=O)(=O)c1cncc(n1)C(=O)N[C@H](CC(C)C)CO2 [Compound 70, (11R)-6-(2,6-dimethylphenyl)-11-isobutyl-2,2-dioxo-9-oxa-2λ^6-thia-3,5,12,16,18,19-hexazatricyclo[12.3.1.14,8]nonadeca-1(18),4(19),5,7,14,16-hexaen-13-one]
ring closure, yield after HPLC ([1]; from Cc1cccc(C)c1-c1cc(OC[C@H](N)CC(C)C)nc(NS(=O)(=O)c2cncc(C(=O)O)n2)n1, 13-membered ring, HATU/DIEA, DMF, 18.6 mM, 25.0 °C, 25.0 h): 29% | Ent. B Max Activity (CFTR [2]; Table 9): +++ (+++ is >60%) | EC50 (CFTR [2]; Table 9): < 1000 nM

Cc1cccc(C)c1-c1cc2nc(n1)NS(=O)(=O)c1cc(n(C)n1)C(=O)N[C@H](CC(C)C)CO2 [Compound 76, (10R)-15-(2,6-Dimethylphenyl)-10-isobutyl-6-methyl-3,3-dioxo-12-oxa-3λ^6-thia-2,5,6,9,16,17-hexazatricyclo[11.3.1.14,7]octadeca-1(17),4,7(18),13,15-pentaen-8-one]
ring closure, yield after HPLC ([1]; from Cc1cccc(C)c1-c1cc(OC[C@H](N)CC(C)C)nc(NS(=O)(=O)c2cc(C(=O)O)n(C)n2)n1, 13-membered ring, HATU/DIEA, DMF, 3.1 mM, 25.0 °C, 2.0 h): 33% | Ent. B Max Activity (CFTR [2]; Table 9): +++ (+++ is >60%) | EC50 (CFTR [2]; Table 9): 1000 to 3000 nM

Cc1cccc(C)c1-c1cc2nc(n1)NS(=O)(=O)c1cccc(c1)C(=O)NCCC(c1ccc(C(C)(C)C)cc1)O2 (centres unmarked) [Compound 55, 10-(4-tert-Butylphenyl)-6-(2,6-dimethylphenyl)-2,2-dioxo-9-oxa-2λ^6-thia-3,5,13,20-tetrazatricyclo[13.3.1.14,8]icosa-1(19),4(20),5,7,15,17-hexaen-14-one]
ring closure, yield after HPLC ([1]; from Cc1cccc(C)c1-c1cc(OC(CCN)c2ccc(C(C)(C)C)cc2)nc(NS(=O)(=O)c2cccc(C(=O)O)c2)n1, 14-membered ring, HATU/TEA, DMF, 204.0 mM, 50.0 °C, 0.25 h): 18% | Ent. A Max Activity (CFTR [3]; Table 9): ++ (++ is 30-60%) | EC50 (CFTR [3]; Table 9): 1000 to 3000 nM

Cc1cccc(C)c1-c1cc2nc(n1)NS(=O)(=O)c1cccc(c1)C(=O)NC[C@@H](C)O2 [Compound 28, (10R)-6-(2,6-dimethylphenyl)-10-methyl-2,2-dioxo-9-oxa-2λ^6-thia-3,5,12,19-tetrazatricyclo[12.3.1.14,8]nonadeca-1(18),4(19),5,7,14,16-hexaen-13-one]
ring closure, yield after HPLC ([1]; from Cc1cccc(C)c1-c1cc(O[C@H](C)CN)nc(NS(=O)(=O)c2cccc(C(=O)O)c2)n1, 13-membered ring, HATU/DIEA, DMF, 46.7 mM, 25.0 °C, 1.0 h, 2 steps): 46% | Ent. A Max Activity (CFTR [3]; Enteroid Assay A): +++ (+++ is >600%) | EC50 (CFTR [3]; Enteroid Assay A): 3000 to 30000 nM | Ent. B Max Activity (CFTR [2]; Enteroid Assay B): ++ (++ is 30-60%) | EC50 (CFTR [2]; Enteroid Assay B): 3000 to 30000 nM

Cc1cccc(C)c1-c1cc2nc(n1)NS(=O)(=O)c1cccc(c1)C(=O)NCC(C(=O)NCCC(C)(C)C)O2 (centres unmarked) [Compound 30, N-(3,3-Dimethylbutyl)-6-(2,6-dimethylphenyl)-2,2,13-trioxo-9-oxa-2λ^6-thia-3,5,12,19-tetrazatricyclo[12.3.1.14,8]nonadeca-1(18),4(19),5,7,14,16-hexaene-10-carboxamide]
ring closure, yield after HPLC ([1]; from Cc1cccc(C)c1-c1cc(OC(CN)C(=O)NCCC(C)(C)C)nc(NS(=O)(=O)c2cccc(C(=O)O)c2)n1, 13-membered ring, HATU/DIEA, DMF, 30.2 mM, 25.0 °C, 0.25 h): 28% | EC50 (CFTR [3]; Table 8): 3000 to 30000 nM

Cc1cccc(C)c1-c1cc2nc(n1)NS(=O)(=O)c1cccc(c1)C(=O)NCC(c1ccccc1Cl)O2 (centres unmarked) [Compound 31, 10-(2-Chlorophenyl)-6-(2,6-dimethylphenyl)-2,2-dioxo-9-oxa-2λ^6-thia-3,5,12,19-tetrazatricyclo[12.3.1.14,8]nonadeca-1(18),4(19),5,7,14,16-hexaen-13-one]
ring closure, yield after HPLC ([1]; from Cc1cccc(C)c1-c1cc(OC(CN)c2ccccc2Cl)nc(NS(=O)(=O)c2cccc(C(=O)O)c2)n1, 13-membered ring, HATU/DIEA, DMF, 42.4 mM, 25.0 °C, 1.0 h): 49% | Ent. A Max Activity (CFTR [3]; Table 8): +++ (+++ is >60%) | EC50 (CFTR [3]; Table 8): < 1000 nM

Cc1cccc(C)c1-c1cc2nc(n1)NS(=O)(=O)c1cccc(c1)C(=O)NCC(c1ccc(C(C)(C)C)cn1)O2 (centres unmarked) [Compound 6, 10-(5-tert-Butyl-2-pyridyl)-6-(2,6-dimethylphenyl)-2,2-dioxo-9-oxa-2λ^6-thia-3,5,12,19-tetrazatricyclo[12.3.1.14,8]nonadeca-1(18),4(19),5,7,14,16-hexaen-13-one]
ring closure, yield after HPLC ([1]; from Cc1cccc(C)c1-c1cc(OC(CN)c2ccc(C(C)(C)C)cn2)nc(NS(=O)(=O)c2cccc(C(=O)O)c2)n1, 13-membered ring, HATU/DIEA, DMF, 40.9 mM, 25.0 °C, 0.25 h): 33% | EC50 (CFTR [3]; Table 8): < 1000 nM

Cc1cccc(COCc2ccccc2)c1-c1cc2nc(n1)NS(=O)(=O)c1cccc(c1)C(=O)N[C@H](CC(C)C)CO2 [Compound 106, (11R)-6-[2-(benzyloxymethyl)-6-methyl-phenyl]-11-isobutyl-2,2-dioxo-9-oxa-2λ^6-thia-3,5,12,19-tetrazatricyclo[12.3.1.14,8]nonadeca-1(18),4(19),5,7,14,16-hexaen-13-one]
ring closure, yield after HPLC ([1]; from Cc1cccc(COCc2ccccc2)c1-c1cc(OC[C@H](N)CC(C)C)nc(NS(=O)(=O)c2cccc(C(=O)O)c2)n1, 13-membered ring, HATU/DIEA, DMF, 48.7 mM, 25.0 °C, 0.5 h): 30% | Ent. A Max Activity (CFTR [3]; Table 9): +++ (+++ is >60%) | EC50 (CFTR [3]; Table 9): < 1000 nM

Cc1cccc(C)c1-c1cc2nc(n1)NS(=O)(=O)c1cccc(c1)C(=O)N[C@H](CC1CC1)CO2 [Compound 114, (11R)-11-(Cyclopropylmethyl)-6-(2,6-dimethylphenyl)-9-oxa-2λ^6-thia-3,5,12,19-tetraazatricyclo[12.3.1.14,8]nonadeca-1(17),4(19),5,7,14(18),15-hexaene-2,2,13-trione]
ring closure, yield after HPLC ([1]; from Cc1cccc(C)c1-c1cc(OC[C@H](N)CC2CC2)nc(NS(=O)(=O)c2cccc(C(=O)O)c2)n1, 13-membered ring, HATU/TEA, DMF, 18.8 mM, 17.0 h): 61% | Ent. A Max Activity (CFTR [3]; Enteroid Assay A): +++ (+++ is >600%) | EC50 (CFTR [3]; Enteroid Assay A): < 1000 nM

Cc1cccc(C)c1-c1cc2nc(n1)NS(=O)(=O)N1CCCC(C1)C(=O)N[C@H](CC1CCCCC1)CO2 (stereo partly drawn) [Compound 73, (11R)-11-(Cyclohexylmethyl)-6-(2,6-dimethylphenyl)-2,2-dioxo-9-oxa-2λ^6-thia-1,3,5,12,19-pentazatricyclo[12.3.1.14,8]nonadeca-4(19),5,7-trien-13-one]
ring closure, yield after HPLC ([1]; from Cc1cccc(C)c1-c1cc(OC[C@H](N)CC2CCCCC2)nc(NS(=O)(=O)N2CCCC(C(=O)O)C2)n1, 13-membered ring, HATU/DIEA, DMF, 19.2 mM, 3.0 h): 19% | Ent. A Max Activity (CFTR [3]; Table 8): + (+ is <30%)

Cc1cccc(C)c1-c1cc2nc(n1)NS(=O)(=O)c1cccc(c1)C(=O)NCC(C1CCOCC1)O2 (centres unmarked) [Compound 34, 6-(2,6-Dimethylphenyl)-2,2-dioxo-10-tetrahydropyran-4-yl-9-oxa-2λ^6-thia-3,5,12,19-tetrazatricyclo[12.3.1.14,8]nonadeca-1(18),4(19),5,7,14,16-hexaen-13-one]
ring closure, yield after HPLC ([1]; from Cc1cccc(C)c1-c1cc(OC(CN)C2CCOCC2)nc(NS(=O)(=O)c2cccc(C(=O)O)c2)n1, 13-membered ring, HATU/DIEA, DMF, 66.2 mM, 25.0 °C, 0.25 h): 25% | Ent. A Max Activity (CFTR [3]; Table 8): + (+ is <30%)

Cc1cccc(C)c1-c1cc2nc(n1)NS(=O)(=O)c1cccc(c1)C(=O)N[C@H](C)[C@H](c1ccc(C(F)(F)F)cc1)O2 [Compound 42, (10S,11R)-6-(2,6-dimethylphenyl)-11-methyl-2,2-dioxo-10-[4-(trifluoromethyl)phenyl]-9-oxa-2λ^6-thia-3,5,12,19-tetrazatricyclo[12.3.1.14,8]nonadeca-1(18),4(19),5,7,14,16-hexaen-13-one]
ring closure, yield after HPLC ([1]; from Cc1cccc(C)c1-c1cc(O[C@@H](c2ccc(C(F)(F)F)cc2)[C@@H](C)N)nc(NS(=O)(=O)c2cccc(C(=O)O)c2)n1, 13-membered ring, HATU/NaOtBu, DMF/THF, 96.3 mM, 25.0 °C, 0.33 h, 2 steps): 4% | Ent. A Max Activity (CFTR [3]; Table 9): ++ (++ is 30-60%) | EC50 (CFTR [3]; Table 9): < 1000 nM

COC[C@H]1NC(=O)c2cccc(c2)S(=O)(=O)Nc2nc(cc(-c3c(C)cccc3C)n2)O[C@@H]1c1ccc(C(C)(C)C)cc1 (single isomer, unassigned) [Compound 44]
ring closure, yield after HPLC [1, 4]: 8% | Ent. A Max Activity (CFTR [3]; Table 9): +++ (+++ is >60%) | EC50 (CFTR [3]; Table 9): < 1000 nM

Cc1cccc(C)c1-c1cc2nc(n1)NS(=O)(=O)c1cccc(c1)C(=O)NCC(c1cccc(Cl)c1)O2 (centres unmarked) [Compound 32, 10-(3-Chlorophenyl)-6-(2,6-dimethylphenyl)-2,2-dioxo-9-oxa-2λ^6-thia-3,5,12,19-tetrazatricyclo[12.3.1.14,8]nonadeca-1(18),4(19),5,7,14,16-hexaen-13-one]
ring closure, yield after HPLC ([1]; from Cc1cccc(C)c1-c1cc(OC(CN)c2cccc(Cl)c2)nc(NS(=O)(=O)c2cccc(C(=O)O)c2)n1, 13-membered ring, HATU/DIEA, DMF, 41.6 mM, 25.0 °C, 1.0 h): 27% | Ent. A Max Activity (CFTR [3]; Table 8): +++ (+++ is >60%) | EC50 (CFTR [3]; Table 8): < 1000 nM

COC[C@H]1NC(=O)c2cccc(c2)S(=O)(=O)Nc2nc(cc(-c3c(C)cccc3C)n2)OC1c1ccc(C(C)(C)C)cc1 (single isomer, unassigned) [Compound 45]
ring closure, yield after HPLC ([1]; from COC[C@@H](N)[C@H](Oc1cc(-c2c(C)cccc2C)nc(NS(=O)(=O)c2cccc(C(=O)O)c2)n1)c1ccc(C(C)(C)C)cc1, 13-membered ring, HATU/DIEA, DMF, 161.6 mM, 25.0 °C, 0.5 h): 8% | ring closure, yield after HPLC [1, 4]: 10% | Ent. A Max Activity (CFTR [3]; Table 9): +++ (+++ is >60%) | EC50 (CFTR [3]; Table 9): < 1000 nM
